The results in this text go back to patent publication US20240307382A1, “MODULATORS OF THE INTEGRATED STRESS PATHWAY” (Calico Life Sciences LLC, priority 2017, published 2024).

Each structure is given as a SMILES string.

A word on the EC50: it is the midpoint of the concentration-response curve.

For this assay, the system named is HEK293T cells carrying the ATF4 luciferase reporter. Description: ATF4-Luc assay (ATF4 luciferase reporter, tunicamycin-treated cells). Format: cell-based. The conditions noted are these: Homo sapiens, HEK-293T, 1 μg/mL tunicamycin, 7 hours. As for the experimental part:
In order to test exemplary compounds of the invention in a cellular context, a stable VWMD cell line was first constructed. The ATF4 reporter was prepared by fusing the human full-length ATF4 5′-UTR (NCBI Accession No. BC022088.2) in front of the firefly luciferase (FLuc) coding sequence lacking the initiator methionine as described in Sidrauski et al (eLife 2013). The construct was used to produce recombinant retroviruses using standard methods and the resulting viral supermatant was used to transduce ITEK293T cells, which were then subsequently selected with puromycin to generate a stable cell line.
HTEK293T cells carrying the ATF4 luciferase reporter were plated on polylysine coated 384-well plates (Greiner Bio-one) at 30,000 cells per well. Cells were treated the next day with 1 μg/mL tunicamycin and 200 nM of a compound of Formula (I) for 7 hours. Luminescence was measured using One Glo (Promega) as specified by the manufacturer. Cells were maintained in DMEM with L-glutamine supplemented with 10% heat-inactivated FBS (Gibco) and Antibiotic-Antimycotic solution (Gibco).
Table 2 below summarizes the EC50 data obtained using the ATF4-Luc assay for exemplary compounds of the invention.
For orientation: In a reporter assay the amount or activity of a reporter protein is the signal.
With `O=C(COc1ccccn1)NC12CCC(NC(=O)c3cc(C(F)F)no3)(CC1)C[C@@H]2O` [Compound 1071, 3-(difluoromethyl)-N-[(3S)-3-hydroxy-4-{2-[(pyridin-2-yl)oxy]acetamido}bicyclo[2.2.2]octan-1-yl]-1,2-oxazole-5-carboxamide], the 50% effective concentration (EC50) is above 2000 nM.

For `COCc1ccc(C(=O)NC23CC(NC(=O)COc4ccc(Cl)c(F)c4)(C2)C3)cn1` [Compound 1090, N-{3-[2-(4-chloro-3-fluorophenoxy)acetamido]bicyclo[1.1.1]pentan-1-yl}-6-(methoxymethyl)pyridine-3-carboxamide], the 50% effective concentration (EC50) lay within 250 to 1000 nM.

For the compound `O=C(COc1ccc(Cl)c(Cl)c1)NC12CCC(NC(=O)c3ccc(N4CCCC4)cn3)(CC1)C[C@@H]2O` [Compound 1014, N-{(3S)-4-[2-(3,4-dichlorophenoxy)acetamido]-3-hydroxybicyclo[2.2.2]octan-1-yl}-5-(pyrrolidin-1-yl)pyridine-2-carboxamide], the EC50 was above 2000 nM.

Consider `O=C(COc1ccc(Cl)c(Cl)c1)NC12CCC(NC(=O)c3ccccn3)(CC1)CC2` [Compound 993, N-{4-[2-(3,4-dichlorophenoxy)acetamido]bicyclo[2.2.2]octan-1-yl}pyridine-2-carboxamide], for which the EC50 was 50 to 250 nM.

With `O=C(COc1ccc(Cl)c(F)c1)NC12CCC(NC(=O)c3cc4cccn4cn3)(CC1)C[C@@H]2O` [Compound 976, N-{(3S)-4-[2-(4-chloro-3-fluorophenoxy)acetamido]-3-hydroxybicyclo[2.2.2]octan-1-yl}pyrrolo[1,2-c]pyrimidine-3-carboxamide], the EC50 is 50 to 250 nM.

As for `O=C(COc1ccc(Cl)c(F)c1)NC12CC(NC(=O)c3ccc4c(n3)CCCC4)(C1)C2` [Compound 1093, N-{3-[2-(4-chloro-3-fluorophenoxy)acetamido]bicyclo[1.1.1]pentan-1-yl]-5,6,7,8-tetrahydroquinoline-2-carboxamide], the EC50 fell in the range of 50 to 250 nM.

As for `O=C(COc1ccc(Cl)c(F)c1)NC12CC(NC(=O)c3ccc(Cl)c(O)c3)(C1)C2` [Compound 1089, 4-chloro-N-{3-[2-(4-chloro-3-fluorophenoxy)acetamido]bicyclo[1.1.1]pentan-1-yl}-3-hydroxybenzamide], the 50% effective concentration (EC50) lay in the range of 50 to 250 nM.

Regarding `O=C(COc1ccc(Cl)c(F)c1)NC12CCC(NC(=O)c3cc(-c4ccccc4)on3)(CC1)C[C@@H]2O` [Compound 1039, N-{(3S)-4-[2-(4-chloro-3-fluorophenoxy)acetamido]-3-hydroxybicyclo[2.2.2]octan-1-yl}-5-phenyl-1,2-oxazole-3-carboxamide], the concentration giving a half-maximal response (EC50) was below 50 nM.

`O=C(COc1ccc(Cl)c(F)c1)NC12CC(Nc3cc(N4CCCC4)ccn3)(C1)C2` [Compound 962, 2-(4-chloro-3-fluorophenoxy)-N-(3-{[4-(pyrrolidin-1-yl)pyridin-2-yl]amino}bicyclo[1.1.1]pentan-1-yl)acetamide]: the 50% effective concentration (EC50) is 1000 to 2000 nM.

As for `Cn1ncc2cc(C(=O)NC34CC(NC(=O)COc5ccc(Cl)c(F)c5)(C3)C4)ccc21` [Compound 1023, N-{3-[2-(4-chloro-3-fluorophenoxy)acetamido]bicyclo[1.1.1]pentan-1-yl}-1-methyl-1H-indazole-5-carboxamide], the half-maximal effective concentration (EC50) fell in the range of 250 to 1000 nM.

With `O=C(COc1ccc(Cl)c(Cl)c1)NC12CCC(NC(=O)c3cc(C(F)(F)F)no3)(CC1)C[C@@H]2O` [Compound 1017, N-{(3S)-4-[2-(3,4-dichlorophenoxy)acetamido]-3-hydroxybicyclo[2.2.2]octan-1-yl}-3-(trifluoromethyl)-1,2-oxazole-5-carboxamide], the EC50 is below 50 nM.

`O=C(COc1ccc(Cl)c(F)c1)NC12CC(NC(=O)c3cc(F)c(F)cc3NCCO)(C1)C2` [Compound 1060, N-{3-[2-(4-chloro-3-fluorophenoxy)acetamido]bicyclo[1.1.1]pentan-1-yl}-4,5-difluoro-2-[(2-hydroxyethyl)amino]benzamide]: the concentration giving a half-maximal response (EC50) fell in the range of 250 to 1000 nM.

On to `O=C(COc1ccc(Cl)c(C(F)(F)F)c1)NC12CCC(NC(=O)c3cc(C(F)F)no3)(CC1)C[C@@H]2O` [Compound 1096, N-[(3S)-4-{2-[4-chloro-3-(trifluoromethyl)phenoxy]acetamido}-3-hydroxybicyclo[2.2.2]octan-1-yl]-3-(difluoromethyl)-1,2-oxazole-5-carboxamide], for which the EC50 is below 50 nM.

Take `O=C(COc1ccc(Cl)c(F)c1)NC12CCC(NC(=O)c3cc4cc(Cl)ccc4o3)(CC1)[C@@H](O)C2` [Compound 1109, 5-chloro-N-{(2S)-4-[2-(4-chloro-3-fluorophenoxy)acetamido]-2-hydroxybicyclo[2.2.2]octan-1-yl}-1-benzofuran-2-carboxamide]: the concentration for a half-maximal effect (EC50) was below 50 nM.

Take `O=C(COc1ccc(Cl)c(F)c1)NC12CCC(NC(=O)c3ccn(-c4ccc(Cl)c(Cl)c4)n3)(CC1)[C@@H](O)C2` [Compound 1066, N-{(2S)-4-[2-(4-chloro-3-fluorophenoxy)acetamido]-2-hydroxybicyclo[2.2.2]octan-1-yl}-1-(3,4-dichlorophenyl)-1H-pyrazole-3-carboxamide]: the EC50 was below 50 nM.

As to `O=C(COc1ccc(Cl)c(F)c1)NC12CCC(NC(=O)c3cc4cc(Cl)ccc4o3)(CC1)C[C@@H]2O` [Compound 1077, 5-chloro-N-{(3S)-4-[2-(4-chloro-3-fluorophenoxy)acetamido]-3-hydroxybicyclo[2.2.2]octan-1-yl}-1-benzofuran-2-carboxamide], the 50% effective concentration (EC50) was below 50 nM.

Turning to `O=C(COc1ccc(Cl)c(Cl)c1)NC12CCC(NC(=O)c3ccc(OC(F)(F)F)nc3)(CC1)C[C@@H]2O` [Compound 1001, N-{(3S)-4-[2-(3,4-dichlorophenoxy)acetamido]-3-hydroxybicyclo[2.2.2]octan-1-yl}-6-(trifluoromethoxy)pyridine-3-carboxamide], the EC50 is below 50 nM.

Regarding `O=C(COc1ccc(C(F)(F)F)cc1)NC12CCC(NC(=O)c3cc(C(F)F)no3)(CC1)C[C@@H]2O` [Compound 1094, 3-(difluoromethyl)-N-[(3S)-3-hydroxy-4-{2-[4-(trifluoromethyl)phenoxy]acetamido}bicyclo[2.2.2]octan-1-yl]-1,2-oxazole-5-carboxamide], the EC50 is 50 to 250 nM.

Turning to `CN(C(=O)c1cc(C(F)F)no1)C12CCC(NC(=O)COc3ccc(Cl)c(F)c3)(CC1)[C@@H](O)C2` [Compound 967, N-{(3S)-4-[2-(4-chloro-3-fluorophenoxy)acetamido]-3-hydroxybicyclo[2.2.2]octan-1-yl}-3-(difluoromethyl)-N-methyl-1,2-oxazole-5-carboxamide], the concentration giving a half-maximal response (EC50) was 1000 to 2000 nM.

Consider `O=C(COc1ccc(Cl)c(F)c1)NC12CCC(NC(=O)c3cc(CO)ccn3)(CC1)[C@@H](O)C2` [Compound 1105, N-{(2S)-4-[2-(4-chloro-3-fluorophenoxy)acetamido]-2-hydroxybicyclo[2.2.2]octan-1-yl}-4-(hydroxymethyl)pyridine-2-carboxamide], for which the EC50 is below 50 nM.

With `O=C(COc1ccc(Cl)c(F)c1)NC12CC(Nc3cncc(C(F)(F)F)c3)(C1)C2` [Compound 1045, 2-(4-chloro-3-fluorophenoxy)-N-(3-{[5-(trifluoromethyl)pyridin-3-yl]amino}bicyclo[1.1.1]pentan-1-yl)acetamide], the EC50 was above 2000 nM.

As to `O=C(COc1ccc(Cl)c(Cl)c1)NC12CCC(NC(=O)c3ccc(C(F)F)nc3)(CC1)C[C@@H]2O` [Compound 987, N-{(3S)-4-[2-(3,4-dichlorophenoxy)acetamido]-3-hydroxybicyclo[2.2.2]octan-1-yl}-6-(difluoromethyl)pyridine-3-carboxamide], the concentration for a half-maximal effect (EC50) is below 50 nM.

In the case of `O=C(COc1ccc(Cl)c(Cl)c1)NC12CCC(NC(=O)c3ccc4c(c3)OC(F)(F)O4)(CC1)C[C@@H]2O` [Compound 985, N-{(3S)-4-[2-(3,4-dichlorophenoxy)acetamido]-3-hydroxybicyclo[2.2.2]octan-1-yl}-2,2-difluoro-2H-1,3-benzodioxole-5-carboxamide], the EC50 was below 50 nM.

As for `Cc1oc(-c2ccccc2)cc1C(=O)NC12CCC(NC(=O)COc3ccc(Cl)c(F)c3)(CC1)[C@@H](O)C2` [Compound 1021, N-{(3S)-4-[2-(4-chloro-3-fluorophenoxy)acetamido]-3-hydroxybicyclo[2.2.2]octan-1-yl}-2-methyl-5-phenylfuran-3-carboxamide], the EC50 was below 50 nM.

For the compound `O=C(COc1ccc(Cl)c(F)c1)NC12CCC(NC(=O)c3ccc(OC(F)(F)F)nc3)(CC1)CC2` [Compound 996, N-{4-[2-(4-chloro-3-fluorophenoxy)acetamido]bicyclo[2.2.2]octan-1-yl}-6-(trifluoromethoxy)pyridine-3-carboxamide], the concentration giving a half-maximal response (EC50) was above 2000 nM.

Consider `N#Cc1cnccc1NC12CC(NC(=O)COc3ccc(Cl)c(F)c3)(C1)C2` [Compound 953, 2-(4-chloro-3-fluorophenoxy)-N-{3-[(3-cyanopyridin-4-yl)amino]bicyclo[1.1.1]pentan-1-yl}acetamide], for which the 50% effective concentration (EC50) fell in the range of 50 to 250 nM.

Consider `COC(=O)c1ccnc(NC23CC(NC(=O)COc4ccc(Cl)c(F)c4)(C2)C3)c1` [Compound 964, methyl 2-({3-[2-(4-chloro-3-fluorophenoxy)acetamido]bicyclo[1.1.1]pentan-1-yl}amino)pyridine-4-carboxylate], for which the EC50 is above 2000 nM.

For `Cc1onc(C(=O)NC23CC(NC(=O)COc4ccc(Cl)c(F)c4)(C2)C3)c1C(=O)Nc1ncc(C(F)(F)F)cc1Cl` [Compound 1081, N^3-{3-[2-(4-chloro-3-fluorophenoxy)acetamido]bicyclo[1.1.1]pentan-1-yl}-N^4-[3-chloro-5-(trifluoromethyl)pyridin-2-yl]-5-methyl-1,2-oxazole-3,4-dicarboxamide], the EC50 was above 2000 nM.
